1 compound from ChEMBL document CHEMBL4376872, “Scaffold Hopping of Natural Product Evodiamine: Discovery of a Novel Antitumor Scaffold with Excellent Potency against Colon Cancer” (J Med Chem, 2020) can be followed below.

The test system of one test is MDA-MB-435. The test is described as follows: Antiproliferative activity against human MDA-MB-435 cells assessed as reduction in cell viability incubated for 72 hrs by CCK8 assay. The format is functional, cell-based. Particulars: MDA-MB-435, 72 h. (In general: Formazan colour is commonly taken as a measure of viable cells.)
A further test has as its system K562. The test is described as follows: Antiproliferative activity against human K562 cells assessed as reduction in cell viability incubated for 72 hrs by CCK8 assay. Particulars: K562, 72 h. The class given is functional, cell-based.
For the next test, the system named is SK-HEP1. The test is described as follows: Antiproliferative activity against human SKHEP1 cells assessed as reduction in cell viability incubated for 72 hrs by CCK8 assay. The class given is functional, cell-based. Particulars: SK-HEP1, 72 h.
Test [1] deals with HCT-116. The test is described as follows: Cell cycle arrest in human HCT116 cells assessed as accumulation in G1 phase at 4 nM incubated for 24 hrs by propidium iodide staining based flow cytometry (reference value: 45.18 %). The format is functional. A general note: In flow cytometry, cells or beads pass a laser one at a time.
The subject of another test is NCI-H446. The test is described as follows: Antiproliferative activity against human NCI-H446 cells assessed as reduction in cell viability incubated for 72 hrs by CCK8 assay. The class given is functional, cell-based. As to conditions: NCI-H446, 72 h.
In test [2] the target is cAMP-dependent protein kinase catalytic subunit alpha (Homo sapiens) (UniProt P17612). The experiment in a line: Inhibition of PKAC-alpha (unknown origin) using CREBtide as substrate at 5 uM incubated for 40 mins in presence of 10 uM ATP by kiase-Glo luminescence assay relative to control.
Test [3] addresses Epidermal growth factor receptor (Homo sapiens) (UniProt P00533). The experiment in a line: Inhibition of EGFR (unknown origin) using poly (Glu, Tyr) as substrate at 5 uM incubated for 40 mins in presence of 10 uM ATP by kiase-Glo luminescence assay relative to control.
In test [4] the target is Lysine-specific demethylase 6B (Homo sapiens) (UniProt O15054). The experiment in a line: Inhibition of JMJD3 (unknown origin) using biotinylated histone H3 peptide as substrate at 5 uM incubated for 60 mins by AlphaScreen assay relative to control. (Alpha assays give light when donor and acceptor beads are brought close together.)
Test [5] concerns the target 72 kDa type IV collagenase (Homo sapiens) (UniProt P08253). The test is described as follows: Inhibition of MMP2 (unknown origin) using Mca-PLGLDpaAR as substrate at 5 uM preincubated with enzyme for 2 hrs followed by incubation with substrate for 15 mins by fluorescence based analysis relative to control.
The target of test [6] is Lysine-specific demethylase 4A (Homo sapiens) (UniProt O75164). The test is described as follows: Inhibition of JMJD2A (unknown origin) using biotinylated histone H3 peptide as substrate at 5 uM incubated for 60 mins by AlphaScreen assay relative to control.
A further test relates to BEL-7404 tumor cell line. The experiment in a line: Antiproliferative activity against human Bel7404 cells assessed as reduction in cell viability incubated for 72 hrs by CCK8 assay. The class given is functional, cell-based. Particulars: BEL-7404, 72 h.
The target of test [7] is PI3-kinase p110-alpha/p85-alpha (Homo sapiens) (UniProt P27986+P42336). The experiment in a line: Inhibition of PI3K p110alpha/p85alpha (unknown origin) using PI3K lipid as substrate at 5 uM incubated for 40 mins in presence of 2.5 uM ATP by kinase-Glo luminescence assay relative to control. The class given is protein-complex assay.
In test [8] the test system is HCT-116. The test is described as follows: Cell cycle arrest in human HCT116 cells assessed as accumulation in G2 phase at 36 nM incubated for 24 hrs by propidium iodide staining based flow cytometry (reference value: 12.52 %). The class given is functional.
For test [9], the system named is HCT-116. The experiment in a line: Cell cycle arrest in human HCT116 cells assessed as accumulation in G1 phase at 12 nM incubated for 24 hrs by propidium iodide staining based flow cytometry (reference value: 45.18 %). The format is functional.
Test [10] addresses Poly [ADP-ribose] polymerase tankyrase-2 (Homo sapiens) (UniProt Q9H2K2). The test is described as follows: Inhibition of TNKS2 (unknown origin) using biotin-NAD+, NAD+ and sIDNA as substrate at 5 uM incubated for 1 hr by ELISA relative to control.
For test [11], the system named is HCT-116. The test is described as follows: Cell cycle arrest in human HCT116 cells assessed as accumulation in S phase at 4 nM incubated for 24 hrs by propidium iodide staining based flow cytometry (reference value: 42.31 %). The format is functional.
Test [12] has as its target DNMT3A2/3L complex (Homo sapiens) (UniProt Q9Y6K1+Q9UJW3). The experiment in a line: Inhibition of DNMT3a/3L (unknown origin) using poly(dIdC) as substrate at 5 uM incubated for 3 hrs in presence of 20 uM SAM by fluorescence analysis. The class given is protein-complex assay.
Test [13] relates to HCT-116. The test is described as follows: Cell cycle arrest in human HCT116 cells assessed as accumulation in S phase at 12 nM incubated for 24 hrs by propidium iodide staining based flow cytometry (reference value: 42.31 %). The format is functional.
The target in test [14] is Poly [ADP-ribose] polymerase 2 (Homo sapiens) (UniProt Q9UGN5). The test is described as follows: Inhibition of PARP2 (unknown origin) using biotin-NAD+, NAD+ and sIDNA as substrate at 5 uM incubated for 1 hr by ELISA relative to control.
Test [15] deals with Poly [ADP-ribose] polymerase 1 (Homo sapiens) (UniProt P09874). The test is described as follows: Inhibition of PARP1 (unknown origin) using biotin-NAD+, NAD+ and sIDNA as substrate at 5 uM incubated for 1 hr by ELISA relative to control.
A short description of test [16]: Antiproliferative activity against human SW579 cells assessed as reduction in cell viability incubated for 72 hrs by CCK8 assay. The format is functional, cell-based. Particulars: SW579, 72 h.
The target in test [17] is Tyrosine-protein kinase ABL1 (Homo sapiens) (UniProt P00519). The experiment in a line: Inhibition of Abl (unknown origin) using Abltide as substrate at 5 uM incubated for 40 mins in presence of 10 uM ATP by kiase-Glo luminescence assay relative to control.
The target in test [18] is Histone-lysine N-methyltransferase EHMT2 (Homo sapiens) (UniProt Q96KQ7). The experiment in a line: Inhibition of N-terminal GST-tagged recombinant human G9a (785 to 1210 residues) expressed in Escherichia coli cells using biotinylated histone H3 peptide as substrate at 5 uM incubated for 90 mins in presence of 1 uM SAM by AlphaScreen assay relative to control.
For test [19], the target named is Serine/threonine-protein kinase PLK1 (Homo sapiens) (UniProt P53350). The experiment in a line: Inhibition of PLK1 (unknown origin) using PLK1 peptide as substrate at 5 uM incubated for 40 mins in presence of 10 uM ATP by kiase-Glo luminescence assay relative to control.

Structures are written as SMILES.

Chain of 72 kDa type IV collagenase (Homo sapiens) (P08253 110-660 limits assumed): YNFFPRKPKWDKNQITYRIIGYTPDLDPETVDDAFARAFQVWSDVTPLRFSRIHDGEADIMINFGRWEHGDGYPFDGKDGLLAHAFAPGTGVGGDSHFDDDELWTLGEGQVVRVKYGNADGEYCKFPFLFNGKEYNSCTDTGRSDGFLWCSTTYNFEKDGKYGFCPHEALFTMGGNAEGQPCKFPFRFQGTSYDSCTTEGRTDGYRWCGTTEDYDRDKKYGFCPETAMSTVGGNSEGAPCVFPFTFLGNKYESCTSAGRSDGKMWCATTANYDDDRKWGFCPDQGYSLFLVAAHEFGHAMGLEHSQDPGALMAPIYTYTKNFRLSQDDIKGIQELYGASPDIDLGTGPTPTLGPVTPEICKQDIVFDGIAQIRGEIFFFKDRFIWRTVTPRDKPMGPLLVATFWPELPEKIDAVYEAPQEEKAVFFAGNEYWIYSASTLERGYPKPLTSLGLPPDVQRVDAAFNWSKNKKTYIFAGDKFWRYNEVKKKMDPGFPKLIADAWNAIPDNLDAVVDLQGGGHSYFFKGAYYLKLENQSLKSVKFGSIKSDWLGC
Chain of Lysine-specific demethylase 4A (Homo sapiens) (O75164 whole entry): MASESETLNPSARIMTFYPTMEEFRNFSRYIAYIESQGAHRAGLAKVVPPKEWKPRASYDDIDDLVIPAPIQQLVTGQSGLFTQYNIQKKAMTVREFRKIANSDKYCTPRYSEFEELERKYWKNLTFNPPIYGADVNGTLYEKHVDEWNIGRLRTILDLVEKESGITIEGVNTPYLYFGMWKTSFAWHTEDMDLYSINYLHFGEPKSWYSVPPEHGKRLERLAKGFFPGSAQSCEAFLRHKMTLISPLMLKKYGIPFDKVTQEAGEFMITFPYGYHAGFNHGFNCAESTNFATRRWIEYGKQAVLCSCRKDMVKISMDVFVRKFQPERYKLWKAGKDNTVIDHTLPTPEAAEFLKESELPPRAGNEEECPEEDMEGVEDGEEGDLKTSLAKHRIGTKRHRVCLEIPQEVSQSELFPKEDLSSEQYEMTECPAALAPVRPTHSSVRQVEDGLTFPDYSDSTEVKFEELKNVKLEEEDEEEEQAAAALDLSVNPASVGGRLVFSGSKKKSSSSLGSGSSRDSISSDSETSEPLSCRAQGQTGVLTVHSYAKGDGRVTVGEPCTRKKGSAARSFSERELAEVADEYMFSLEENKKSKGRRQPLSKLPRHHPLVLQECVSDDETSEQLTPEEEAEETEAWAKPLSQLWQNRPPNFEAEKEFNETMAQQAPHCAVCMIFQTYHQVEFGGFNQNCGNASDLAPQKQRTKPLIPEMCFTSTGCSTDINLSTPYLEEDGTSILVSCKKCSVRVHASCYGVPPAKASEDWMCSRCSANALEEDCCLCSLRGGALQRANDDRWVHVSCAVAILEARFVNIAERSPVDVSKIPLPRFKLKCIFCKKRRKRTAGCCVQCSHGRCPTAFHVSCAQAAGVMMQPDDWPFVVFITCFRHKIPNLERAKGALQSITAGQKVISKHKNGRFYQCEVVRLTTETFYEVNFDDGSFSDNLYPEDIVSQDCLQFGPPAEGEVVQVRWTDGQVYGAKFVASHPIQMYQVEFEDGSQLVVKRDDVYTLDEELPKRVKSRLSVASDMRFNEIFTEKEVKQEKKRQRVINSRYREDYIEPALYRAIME
Chain of Poly [ADP-ribose] polymerase 2 (Homo sapiens) (Q9UGN5 whole entry): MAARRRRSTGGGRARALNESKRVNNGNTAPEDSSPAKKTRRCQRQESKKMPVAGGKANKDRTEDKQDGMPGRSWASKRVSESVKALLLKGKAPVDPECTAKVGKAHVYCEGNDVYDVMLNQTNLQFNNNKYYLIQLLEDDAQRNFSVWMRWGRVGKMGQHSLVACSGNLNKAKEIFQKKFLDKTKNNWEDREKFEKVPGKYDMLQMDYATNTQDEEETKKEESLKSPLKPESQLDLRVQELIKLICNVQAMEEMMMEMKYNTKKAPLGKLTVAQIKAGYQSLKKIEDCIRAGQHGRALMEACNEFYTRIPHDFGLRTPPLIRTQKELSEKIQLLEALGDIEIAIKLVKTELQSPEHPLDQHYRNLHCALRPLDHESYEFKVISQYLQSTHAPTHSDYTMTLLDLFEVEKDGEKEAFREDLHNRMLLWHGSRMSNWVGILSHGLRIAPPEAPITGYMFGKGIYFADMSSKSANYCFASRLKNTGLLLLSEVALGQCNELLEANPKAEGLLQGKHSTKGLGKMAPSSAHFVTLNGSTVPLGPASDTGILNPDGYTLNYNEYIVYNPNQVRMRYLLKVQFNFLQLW
Chain of Lysine-specific demethylase 6B (Homo sapiens) (O15054 whole entry): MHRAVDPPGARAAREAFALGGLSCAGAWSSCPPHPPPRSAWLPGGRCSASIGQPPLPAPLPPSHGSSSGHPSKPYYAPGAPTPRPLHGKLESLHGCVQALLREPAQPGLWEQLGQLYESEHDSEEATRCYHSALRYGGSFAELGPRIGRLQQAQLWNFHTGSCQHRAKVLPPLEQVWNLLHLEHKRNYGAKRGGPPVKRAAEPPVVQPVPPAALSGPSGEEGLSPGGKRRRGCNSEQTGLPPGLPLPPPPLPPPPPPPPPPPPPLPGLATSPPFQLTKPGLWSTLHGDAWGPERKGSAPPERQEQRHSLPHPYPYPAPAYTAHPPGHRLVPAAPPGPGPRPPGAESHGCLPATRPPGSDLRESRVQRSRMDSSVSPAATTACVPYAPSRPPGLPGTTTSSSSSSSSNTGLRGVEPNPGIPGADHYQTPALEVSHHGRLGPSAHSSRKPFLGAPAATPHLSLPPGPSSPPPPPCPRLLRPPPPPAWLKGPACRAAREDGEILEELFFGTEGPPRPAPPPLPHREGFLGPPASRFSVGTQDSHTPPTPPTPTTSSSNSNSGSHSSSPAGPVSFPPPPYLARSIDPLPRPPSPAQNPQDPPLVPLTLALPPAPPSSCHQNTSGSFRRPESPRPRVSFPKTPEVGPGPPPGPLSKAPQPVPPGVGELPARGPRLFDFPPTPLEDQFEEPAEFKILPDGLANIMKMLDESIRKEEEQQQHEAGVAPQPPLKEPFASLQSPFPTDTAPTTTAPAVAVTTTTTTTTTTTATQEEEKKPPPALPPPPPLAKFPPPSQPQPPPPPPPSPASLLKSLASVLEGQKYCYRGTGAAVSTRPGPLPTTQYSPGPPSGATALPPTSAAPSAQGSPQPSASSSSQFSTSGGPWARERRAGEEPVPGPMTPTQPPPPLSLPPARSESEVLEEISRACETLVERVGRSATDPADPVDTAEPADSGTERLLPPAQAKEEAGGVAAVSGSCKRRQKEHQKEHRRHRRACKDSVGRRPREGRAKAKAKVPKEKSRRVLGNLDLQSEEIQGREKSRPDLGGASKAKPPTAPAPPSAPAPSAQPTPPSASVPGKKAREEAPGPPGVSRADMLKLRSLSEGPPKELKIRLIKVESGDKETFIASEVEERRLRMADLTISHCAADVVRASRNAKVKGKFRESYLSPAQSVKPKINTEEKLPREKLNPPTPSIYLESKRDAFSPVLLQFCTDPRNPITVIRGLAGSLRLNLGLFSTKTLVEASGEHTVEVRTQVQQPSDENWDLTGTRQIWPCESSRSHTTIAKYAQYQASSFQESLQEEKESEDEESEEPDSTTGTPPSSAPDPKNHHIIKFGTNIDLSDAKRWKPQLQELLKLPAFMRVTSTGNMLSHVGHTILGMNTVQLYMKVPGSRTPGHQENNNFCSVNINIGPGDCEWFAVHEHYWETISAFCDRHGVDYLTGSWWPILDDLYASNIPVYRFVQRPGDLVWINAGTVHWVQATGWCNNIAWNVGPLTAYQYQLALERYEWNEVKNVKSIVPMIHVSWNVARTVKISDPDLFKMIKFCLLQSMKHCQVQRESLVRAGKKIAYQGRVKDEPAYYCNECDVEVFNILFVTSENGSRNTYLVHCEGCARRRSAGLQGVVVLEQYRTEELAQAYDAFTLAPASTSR
Chain of Serine/threonine-protein kinase PLK1 (Homo sapiens) (P53350 whole entry): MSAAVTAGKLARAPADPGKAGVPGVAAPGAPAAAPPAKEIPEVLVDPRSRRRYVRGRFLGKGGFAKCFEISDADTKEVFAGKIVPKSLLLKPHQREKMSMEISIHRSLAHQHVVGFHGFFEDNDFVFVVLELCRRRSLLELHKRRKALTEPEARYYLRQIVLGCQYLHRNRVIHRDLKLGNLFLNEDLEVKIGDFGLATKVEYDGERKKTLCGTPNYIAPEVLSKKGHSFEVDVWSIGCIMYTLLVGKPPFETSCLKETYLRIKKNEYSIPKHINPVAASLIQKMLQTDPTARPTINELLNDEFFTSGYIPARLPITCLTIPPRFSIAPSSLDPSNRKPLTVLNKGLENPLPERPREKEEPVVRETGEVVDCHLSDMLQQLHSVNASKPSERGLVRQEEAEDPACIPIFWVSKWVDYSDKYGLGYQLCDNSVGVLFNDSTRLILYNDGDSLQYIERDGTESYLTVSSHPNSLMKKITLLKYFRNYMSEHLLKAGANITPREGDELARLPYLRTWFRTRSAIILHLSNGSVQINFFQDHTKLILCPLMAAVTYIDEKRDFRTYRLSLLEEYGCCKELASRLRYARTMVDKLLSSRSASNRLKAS

One may read the IC50 as the point on the concentration scale where inhibition reaches its midpoint. As a reminder, the inhibition is the change of the read-out against control, counted positive when it falls. Take `COc1ccc2c(c1)cc1n2CCN2C(=O)c3cc(F)ccc3N(C)C12` (centres undefined): the IC50 in the test on MDA-MB-435 is 1 µM; in the test with K562, less than 0.003 µM; in the test with SK-HEP1, 1.3 µM; with NCI-H446, greater than 200 µM; in the test with BEL-7404 tumor cell line it was 0.1 µM; in [16] it was 6.1 µM. Moreover, the Activity is recorded as 43.01% with HCT-116 [1]; 84.13% in the test with HCT-116 [8]; 24.07% in the test with HCT-116 [9]; 39.26% in the test on HCT-116 [11]; 40.44% in the test on HCT-116 [13]. The inhibition in [2], in [3], in test [4], in test [5], in test [6] and in [7] was less than 20% each time. Besides, the inhibition in [10], in test [12], in test [14], in test [15], in test [17] and in [18] was less than 20% in each case. In addition, the inhibition in test [19] is less than 20%.
